The subject of this test is progranulin. As to the kind of experiment: Progranulin induction cellular assay (ELISA of secreted mouse PGRN). It counts as cell-based. The settings on record: progranulin induction assay; mouse pMG, primary cortical neurons and BV-2 cell lines named, cell type not given; ELISA-based readout; read-out: EC50. As to the method: Cellular Assays: Progranulin induction assay. To measure the efficacy of compounds, a progranulin induction cellular assay in mouse primary microglia (pMG), primary cortical neurons, and BV-2 cell lines is used. BV-2 cells are split the day before plating into a 96 well plate format at approximately 80%. Cells should be plated the day before and allowed for 1 hour attachment period and for 16 hour incubation. Levels of progranulin secreted into the cell culture medium or retained in the cell lysate can be quantified using an ELISA-based readout and measurement of secreted mouse PGRN in the medium was assessed by the methodology published by Ghidoni et al. 2012. Standard ELISA kits to measure PGRN are available from vendors such as Adipogen, R&D, and Biovendor.
Table B below presents the results of a progranulin induction assay as described above.
In general terms: In an ELISA, binding on a coated surface is turned into a signal by an enzyme label.
The term EC50 denotes the concentration at which the effect is half-maximal. With `C[C@H]1CO[C@@H](C(=O)N2CCc3ccccc3[C@@H]2c2ccc(F)cc2)C[C@@H]1N` [Compound 5518, ((2R,4S,5R)-4-amino-5-methyltetrahydro-2H-pyran-2-yl)((S)-1-(4-fluorophenyl)-3,4-dihydroisoquinolin-2(1H)-yl)methanone], the EC50 came to 0.015 µM.
As to `CO[C@H]1CO[C@@H](C(=O)N2CCc3ccccc3[C@@H]2c2ccc(F)cc2)C[C@H]1N` [Compound 5073, ((2R,4R,5R)-4-amino-5-methoxytetrahydro-2H-pyran-2-yl)((S)-1-(4-fluorophenyl)-3,4-dihydroisoquinolin-2(1H)-yl)methanone], the EC50 was found to be 0.159 µM.
In the case of `N[C@@H]1CCO[C@@H](C(=O)N2CCc3ccccc3[C@@H]2c2ccc(F)cc2)C1` (single isomer, unassigned) [Compound 5028], the EC50 turned out to be 0.042 µM.
In the case of `C[C@@H]1CN[C@H]2C[C@H](C(=O)N3CCc4ccccc4[C@@H]3c3ccc(F)cc3)OC[C@@H]2O1` [Compound 5472, ((S)-1-(4-fluorophenyl)-3,4-dihydroisoquinolin-2(1H)-yl)((3R,4aR,7R,8aS)-3-methyloctahydropyrano[3,4-b][1,4]oxazin-7-yl)methanone], the EC50 was found to be 0.013 µM.
Take `Cn1cnc2c1CO[C@@H](C(=O)N1CCc3ccccc3[C@@H]1c1ccc(F)cc1)C2` [Compound 5529, ((S)-1-(4-fluorophenyl)-3,4-dihydroisoquinolin-2(1H)-yl)((R)-3-methyl-3,4,6,7-tetrahydropyrano[3,4-d]imidazol-6-yl)methanone]: the EC50 came to 1.56 µM.
The figure for `O=C1N[C@H]2C[C@H](C(=O)N3CCc4ccccc4[C@@H]3c3ccc(F)cc3)OC[C@H]2O1` [Compound 5079, (3aS,6R,7aS)-6-((S)-1-(4-fluorophenyl)-1,2,3,4-tetrahydroisoquinoline-2-carbonyl)hexahydro-2H-pyrano[4,3-d]oxazol-2-one] is above 10 µM; for `O=C([C@H]1C[C@](O)(CNCCO)CO1)N1CCc2ccccc2[C@@H]1c1ccc(F)cc1` [Compound 5041, ((S)-1-(4-fluorophenyl)-3,4-dihydroisoquinolin-2(1H)-yl)((2R,4S)-4-hydroxy-4-(((2-hydroxyethyl)amino)methyl)tetrahydrofuran-2-yl)methanone] it is 0.294 µM.
As for `O=C([C@@H]1C[C@@H](NCCO)CO1)N1CCc2ccccc2[C@@H]1c1ccc(F)cc1` (single isomer, unassigned) [Compound 5066], the EC50 came to 0.948 µM.
As for `N[C@@H]1C[C@@H](C(=O)N2CCc3ccccc3[C@@H]2c2ccc(F)cc2)OC[C@@H]1O` [Compound 5054, ((2S,4R,5R)-4-amino-5-hydroxytetrahydro-2H-pyran-2-yl)((S)-1-(4-fluorophenyl)-3,4-dihydroisoquinolin-2(1H)-yl)methanone], the EC50 came to 0.13 µM.
In the case of `C[C@H]1C[C@@H](C(=O)N2CCc3ccccc3[C@@H]2c2ccc(F)cc2)OC[C@@H]1N` [Compound 5076, ((2S,4S,5R)-5-amino-4-methyltetrahydro-2H-pyran-2-yl)((S)-1-(4-fluorophenyl)-3,4-dihydroisoquinolin-2(1H)-yl)methanone], the 50% effective concentration (EC50) amounted to 0.321 µM.
As to `N[C@H]1C[C@H](C(=O)N2CCc3ccccc3[C@@H]2c2ccc(F)cc2F)OC[C@H]1O` [Compound 5257], the concentration for a half-maximal effect (EC50) was determined as 0.022 µM.
Regarding `C[C@@]1(C(=O)N2CCc3ccccc3[C@@H]2c2ccc(F)cc2)C[C@H](N)CCO1` (single isomer, unassigned) [Compound 5237], the concentration giving a half-maximal response (EC50) turned out to be 0.665 µM.
The figure for `C[C@@]1(C(=O)N2CCc3ccccc3[C@@H]2c2ccc(F)cc2)C[C@@H](N)CCO1` (single isomer, unassigned) [Compound 5238] is 0.105 µM; for `N[C@@H]1CC[C@@H](C(=O)N2CCc3ccccc3[C@H]2c2ccc(F)cc2F)OC1` (single isomer, unassigned) [Compound 5019] it is 0.099 µM; for `CCO[C@@H]1CO[C@@H](C(=O)N2CCc3ccccc3[C@@H]2c2ccc(F)cc2F)C[C@@H]1N` [Compound 5262] it is 0.044 µM.
With `CCO[C@H]1C[C@H](C(=O)N2CCc3ccccc3[C@@H]2c2ccc(F)cc2)OC[C@H]1N` [Compound 5088, ((2R,4S,5R)-5-amino-4-ethoxytetrahydro-2H-pyran-2-yl)((S)-1-(4-fluorophenyl)-3,4-dihydroisoquinolin-2(1H)-yl)methanone], the EC50 worked out at 0.074 µM.
As for `O=C([C@H]1C[C@@H]2NCCN(CC(F)(F)F)[C@H]2CO1)N1CCc2ccccc2[C@@H]1c1ccc(F)cc1` (single isomer, unassigned) [Compound 5545], the EC50 is 0.004 µM.
For `N[C@]1(CO)CC[C@@H](C(=O)N2CCc3ccccc3[C@@H]2c2ccc(F)cc2)OC1` [Compound 5213, ((2S,5S)-5-amino-5-(hydroxymethyl)tetrahydro-2H-pyran-2-yl)((S)-1-(4-fluorophenyl)-3,4-dihydroisoquinolin-2(1H)-yl)methanone], the EC50 was found to be 0.401 µM.
The figure for `O=C([C@H]1C[C@@H]2NCCN[C@H]2CO1)N1CCc2ccccc2[C@@H]1c1ccc(F)cc1` [Compound 5461, ((S)-1-(4-fluorophenyl)-3,4-dihydroisoquinolin-2(1H)-yl)((4aR,7R,8aS)-octahydro-2H-pyrano[3,4-b]pyrazin-7-yl)methanone] is 0.01 µM; for `CO[C@H]1CO[C@@H](C(=O)N2CCc3ccccc3[C@@H]2c2ccc(F)cc2)C[C@@H]1NCCO` [Compound 5568] it is 0.025 µM.
For `N[C@H]1CO[C@H](C(=O)N2CCc3ccccc3[C@@H]2c2ccc(F)cc2)OC1` [Compound 5048, (trans-5-amino-1,3-dioxan-2-yl)((S)-1-(4-fluorophenyl)-3,4-dihydroisoquinolin-2(1H)-yl)methanone], the concentration giving a half-maximal response (EC50) came to 0.575 µM.
The result for `C[N-][S@@+2](C)([O-])[C@H]1CO[C@@H](C(=O)N2CCc3ccccc3[C@@H]2c2ccc(F)cc2)C[C@@H]1N` (single isomer, unassigned) [Compound 5555] reads 0.029 µM; that for `CO[C@@H]1CO[C@@H](C(=O)N2CCc3ccccc3[C@@H]2c2ccc(F)cc2)C[C@H]1N` [Compound 5247, ((2R,4R,5S)-4-amino-5-methoxytetrahydro-2H-pyran-2-yl)((S)-1-(4-fluorophenyl)-3,4-dihydroisoquinolin-2(1H)-yl)methanone], 0.095 µM; that for `[NH-][S@@+2]1([O-])CCN[C@H]2C[C@H](C(=O)N3CCc4ccccc4[C@@H]3c3ccc(F)cc3)OC[C@@H]21` [Compound 5553, ((S)-1-(4-fluorophenyl)-3,4-dihydroisoquinolin-2(1H)-yl)((4R,4aR,7R,8aS)-4-imino-4-oxidooctahydro-2H-^4-pyrano[3,4-b][1,4]thiazin-7-yl)methanone], 1.02 µM.
On to `O=C([C@H]1C[C@@H]2NCCS(=O)(=O)[C@H]2CO1)N1CCc2ccccc2[C@@H]1c1ccc(F)cc1` [Compound 5542, ((4aR,7R,8aS)-4,4-dioxidooctahydropyrano[3,4-b][1,4]thiazin-7-yl)((S)-1-(4-fluorophenyl)-3,4-dihydroisoquinolin-2(1H)-yl)methanone], for which the concentration giving a half-maximal response (EC50) was 4.39 µM.
The figure for `N[C@]12CC[C@](C(=O)N3CCc4ccccc4[C@@H]3c3ccc(F)cc3)(C1)OC2` (single isomer, unassigned) [Compound 5021] is 0.148 µM; for `N[C@H]1CO[C@H](C(=O)N2CCc3ccccc3[C@@H]2c2ccc(F)cc2)C[C@H]1O` [Compound 5043, ((2S,4R,5S)-5-amino-4-hydroxytetrahydro-2H-pyran-2-yl)((S)-1-(4-fluorophenyl)-3,4-dihydroisoquinolin-2(1H)-yl)methanone] it is 0.064 µM; for `COCCN[C@@H]1CC[C@H](C(=O)N2CCc3ccccc3[C@@H]2c2ccc(F)cc2)OC1` [Compound 5212, ((S)-1-(4-fluorophenyl)-3,4-dihydroisoquinolin-2(1H)-yl)((2R,5R)-5-((2-methoxyethyl)amino)tetrahydro-2H-pyran-2-yl)methanone] it is 0.314 µM.
As to `CCCO[C@H]1CO[C@@H](C(=O)N2CCc3ccccc3[C@@H]2c2ccc(F)cc2)C[C@@H]1N` [Compound 5502, ((2R,4S,5R)-4-amino-5-propoxytetrahydro-2H-pyran-2-yl)((S)-1-(4-fluorophenyl)-3,4-dihydroisoquinolin-2(1H)-yl)methanone], the EC50 was determined as 0.001 µM.
Consider `O=C([C@@H]1OCCNC[C@@H]1F)N1CCc2ccccc2[C@@H]1c1ccc(F)cc1` (single isomer, unassigned) [Compound 5418], for which the EC50 stood at 0.352 µM.
The result for `N[C@H]1CO[C@@H](C(=O)N2CCc3ccccc3[C@@H]2c2ccc(F)cc2)C[C@H]1O` [Compound 5065, ((2R,4R,5S)-5-amino-4-hydroxytetrahydro-2H-pyran-2-yl)((S)-1-(4-fluorophenyl)-3,4-dihydroisoquinolin-2(1H)-yl)methanone] reads 0.324 µM.
The figure for `N[C@@H]1CO[C@@H](C(=O)N2CCc3ccccc3[C@@H]2c2ccc(F)cc2)C[C@@H]1O` [Compound 5052, ((2R,4S,5R)-5-amino-4-hydroxytetrahydro-2H-pyran-2-yl)((S)-1-(4-fluorophenyl)-3,4-dihydroisoquinolin-2(1H)-yl)methanone] is 0.018 µM; for `N[C@H]1CC[C@@H](C(=O)N2CCc3ccccc3[C@@H]2c2ccc(F)cc2)OC1` (single isomer, unassigned) [Compound 5016] it is 0.199 µM.
The result for `CO[C@@H]1CO[C@@H](C(=O)N2CCc3ccccc3[C@@H]2c2ccc(F)cc2)C[C@@H]1N` [Compound 5062, ((2R,4S,5S)-4-amino-5-methoxytetrahydro-2H-pyran-2-yl)((S)-1-(4-fluorophenyl)-3,4-dihydroisoquinolin-2(1H)-yl)methanone] reads 0.049 µM.

The values above are taken from patent publication US20230406843A1, “Progranulin Modulators and Methods of Using the Same” (ARKUDA THERAPEUTICS, priority 2020, published 2023).
